Reference: US12612368B2 (Remedy Plan, Inc., priority 2019, dated 2026)
Where two headings read alike, the source gives them in different places.

Tests used:
NAMPT = biological target: T1, NAMPT (Homo sapiens, UniProt P43490); assay: NAMPT Activity Assay (Abcam #ab221819); assay type: biochemical; conditions: purified NAMPT, two-step reaction, OD450 nm; percent inhibition vs no drug; compound concentration not stated
T1 construct: purchased Abcam ab221819

MV-4-11 cells = assay: Cell viability in MV-4-11 cells (CellTiter Glo2); assay type: cell-based; conditions: Homo sapiens, MV4-11, 96 h, 8-point dose response, 4 days
Procedure: Approximately 10,000 MV-4-11 cells per well of a 96-well plate were treated with DMSO (no drug control) or each compound in Tables E1 and E2 in an 8-point dose response for 4 days, Cell viability was measured using CellTiter Glo2. The ICse of each compound was determined using CDD Vault.

[1] = CellTiter Glo2 (Table E2), read-out: MV-4-11 Cell Viability, MV-4-11 IC50

T1 sequence (P43490 whole entry): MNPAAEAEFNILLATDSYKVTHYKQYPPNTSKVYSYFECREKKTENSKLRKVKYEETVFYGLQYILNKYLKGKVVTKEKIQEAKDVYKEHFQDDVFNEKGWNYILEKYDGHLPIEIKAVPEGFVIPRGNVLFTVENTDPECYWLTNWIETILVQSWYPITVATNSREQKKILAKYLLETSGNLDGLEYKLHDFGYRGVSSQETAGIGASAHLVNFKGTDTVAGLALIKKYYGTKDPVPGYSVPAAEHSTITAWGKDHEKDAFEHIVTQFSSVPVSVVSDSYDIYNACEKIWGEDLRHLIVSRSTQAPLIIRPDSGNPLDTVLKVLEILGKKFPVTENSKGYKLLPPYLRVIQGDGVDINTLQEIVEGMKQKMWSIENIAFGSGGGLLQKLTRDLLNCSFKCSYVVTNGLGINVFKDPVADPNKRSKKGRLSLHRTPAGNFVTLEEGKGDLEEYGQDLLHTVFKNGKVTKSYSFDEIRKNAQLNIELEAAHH

| NAMPT Inhibition Code (NAMPT) | IC50 (MV-4-11 cells; [1]) [nM] | IC50 (MV-4-11 cells; CellTiter Glo2 (Table E1), read-out: MV-4-11 IC50) [nM] | Structure (SMILES) |
| --- | --- | --- | --- |
| A (A = <33% inhibition) | 5720 |  | CC(=O)CC(=O)N(c1ccc(-c2ccc(C(=O)NCc3cccnc3C)cn2)cc1C)C(C)C [Compound I-497, 6-(4-(N-isopropyl-3-oxobutanamido)-3-methylphenyl)-N-((2-methylpyridin-3-yl)methyl)nicotinamide] |
| A (A = <33% inhibition) | 6770 |  | Cc1cc(-c2ccc(C(=O)NCc3cccnc3C)cn2)ccc1N(C)C(=O)CC#N [Compound I-492, 6-[4-[(2-cyanoacetyl)-methyl-amino]-3-methyl-phenyl]-N-[(2-methyl-3-pyridyl)methyl]pyridine-3-carboxamide] |

Second part, the compound before the results:

| Structure (SMILES) | NAMPT Inhibition Code (NAMPT) | IC50 (MV-4-11 cells; [1]) [nM] | IC50 (MV-4-11 cells; CellTiter Glo2 (Table E1), read-out: MV-4-11 IC50) [nM] |
| --- | --- | --- | --- |
| Cc1cc(-c2ccc(C(=O)NCc3cccnc3)cn2)ccc1N(C)C(=O)CCN [Compound I-593, 6-[4-[3-aminopropanoyl(methyl)amino]-3-methyl-phenyl]-N-(3-pyridylmethyl)pyridine-3-carboxamide] | A (A = <33% inhibition) | 1470 |  |
| CCN(C(C)=O)c1ccc(-c2ccc(C(=O)NCc3cccnc3C)cn2)cc1Cl [Compound I-444, 6-[4-[acetyl(ethyl)amino]-3-chloro-phenyl]-N-[(2-methyl-3-pyridyl)methyl]pyridine-3-carboxamide] | A (A = <33% inhibition) |  | 1820 |
| CC(=O)N(CC1CC1)c1ccc(-c2ccc(C(=O)NCc3ccc(Cl)nc3)cn2)cc1Cl [Compound I-689, 6-[4-[Acetyl(cyclopropylmethyl)amino]-3-chloro-phenyl]-N-[(6-chloro-3-pyridyl)methyl]pyridine-3-carboxamide] | C (C = ≥66% inhibition) | 32.8 |  |
| CC(=O)N(CC1CC1)c1ccc(-c2ccc(C(=O)NCc3cccnc3C)cn2)cc1 [Compound I-500, 6-[4-[Acetyl(cyclopropylmethyl)amino]phenyl]-N-[(2-methyl-3-pyridyl)methyl]pyridine-3-carboxamide] | A (A = <33% inhibition) | 2280 |  |
